Results as given in patent US9434780B2, “Process for preparing human relaxin-2” (Relaxera Pharma GmbH & Co. KG i.G., priority 2011, dated 2016).
Where no end group is shown, it is not given here.

Tests used:
[1] = tested on: human THP-1 cells; assay: cAMP assay in human THP-1 cells; type: cell-based; conditions: FIG. 6, compared with recombinant relaxin-2
[2] = tested on: cardiac fibroblasts; assay: cell model of myocardial hypertrophy; type: cell-based; conditions: inhibition of cardiac fibroblast differentiation into myofibroblasts and of growth factor secretion; compared with recombinant
Source text: In this model, relaxin inhibits the differentiation of cardiac fibroblasts into myofibroblasts and the secretion of growth factors by these cells (Dschietzig et al., 2006).

[3] = storage stability of lyophilized relaxin-2; type: physicochemical; conditions: 4° C., stored for several months, compared with fresh material
Description: The product is lyophilized for storage and stored at −20° C. The high stability of the preparation of highly pure relaxin-2 in lyophilized form at a temperature of 4° C. has been proven by corresponding analytics, in which fresh material was compared with material stored for several months.

[4] = biological target: T1, receptor RXFP1 (Homo sapiens, UniProt Q9HBX9); assay: displacement of europium-labeled relaxin-2 in HEK-293T cells expressing RXFP1; type: binding; conditions: HEK-293T cells expressing natural receptor RXFP1; compared with recombinant human relaxin-2
T1 construct: expressed in transfected cells; host or cells: HEK-293T
T1 sequence (Q9HBX9 1-757): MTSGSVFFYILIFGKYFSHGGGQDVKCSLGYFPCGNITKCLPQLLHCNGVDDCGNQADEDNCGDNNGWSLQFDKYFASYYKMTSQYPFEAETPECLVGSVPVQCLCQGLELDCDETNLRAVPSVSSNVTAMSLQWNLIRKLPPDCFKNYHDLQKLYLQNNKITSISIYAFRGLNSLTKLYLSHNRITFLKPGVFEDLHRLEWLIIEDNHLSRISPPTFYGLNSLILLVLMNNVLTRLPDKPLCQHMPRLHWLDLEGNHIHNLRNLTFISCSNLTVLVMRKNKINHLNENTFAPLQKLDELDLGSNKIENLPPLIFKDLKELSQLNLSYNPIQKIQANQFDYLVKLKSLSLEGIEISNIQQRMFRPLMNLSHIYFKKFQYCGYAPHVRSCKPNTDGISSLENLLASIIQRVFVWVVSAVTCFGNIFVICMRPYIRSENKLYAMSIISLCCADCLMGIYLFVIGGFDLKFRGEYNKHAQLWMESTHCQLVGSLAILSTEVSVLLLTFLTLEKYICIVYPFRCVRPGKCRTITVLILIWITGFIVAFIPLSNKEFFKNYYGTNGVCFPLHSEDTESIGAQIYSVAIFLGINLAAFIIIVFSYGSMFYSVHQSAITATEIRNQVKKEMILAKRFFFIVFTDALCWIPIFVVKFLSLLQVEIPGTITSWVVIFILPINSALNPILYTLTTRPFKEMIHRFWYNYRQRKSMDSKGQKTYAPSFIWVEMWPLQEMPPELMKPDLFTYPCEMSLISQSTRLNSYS

[5] = tested on: cell models; assay: studies on cell models (bioassays); type: cell-based; conditions: compared with recombinant peptide

Substance	activity in cAMP assay [1]	potency in cell model of myocardial hypertrophy [2]	stability in lyophilized form [3]	potency in displacing europium-labeled relaxin-2 [4]	effect on cell models [5]
AZ02: batch of relaxin-2 prepared by chemical synthesis (chain 1 ELYSALANKCCHVGCTKRSLARFC; chain 2 DSWMEEVIKLCGRELVRAQIAICGMSTWS; non-natural residues)	comparable to that of the recombinantly prepared relaxin-2				
human relaxin-2 [synthetic human relaxin-2]	equivalent bioactivities	as potent as recombinant human relaxin-2	only minor amounts of metabolites appear	same potency as recombinant human relaxin-2	excellent effect, comparable to that of the recombinant peptide
recombinant human relaxin-2: recombinantly prepared human relaxin-2 used as comparator (chain 1 QLYSALANKCCHVGCTKRSLARFC; chain 2 DSWMEEVIKLCGRELVRAQIAICGMSTWS; not fully specified; ends and bridges not checked) [reference compound]	equivalent bioactivities				
